From US20260014173A1, “Nutritional composition for stroke” (N.V. Nutricia, priority 2022, published 2026) come the findings set out here.

The test system of assay [1] is Mouse primary cortical neurons (E14). Put plainly: Neurite outgrowth after hypoxia (oxygen glucose deprivation), cortical neuronal cultures, Example 3. The class given is cell-based. Particulars: OGD 3.5 hrs; vitamin D3 30 nM, co-enzyme Q10 3 μM, vitamin B2 30 nM, alone or combined; supplemented immediately after OGD for 24 hrs; control set at 100%. As for the experimental part:
Mouse primary cortical neurons (E14) were seeded onto 96-well plates coated with poly-D-lysine. Cells (20.000 cells/well) were cultured in modified Neurobasal medium (containing B27, Pen/Strep, and GlutaMAX). Cell cultures were incubated at 37° C. in 5% CO2 and medium was replaced every 2-3 days. At day 2 of in vitro culturing, cells underwent oxygen glucose deprivation (OGD) for 3.5 hrs. In order to induce glucose deprivation, modified Neurobasal medium was replaced with an equivalent volume of HBSS. For hypoxia, cells were placed in a humidity-controlled incubator (Whitley H35 Hypoxystation) set to 0.5% O2, 94.5% N2 and 5% CO2 at 37° C. for 3.5 hrs. After the hypoxic incubation period, HBSS was removed and replaced with modified Neurobasal medium, and plates returned to normoxic conditions and incubated at 37° C. in 5% CO2 for an additional 24 hrs. […] Nutrients were supplemented either alone, in combination of two, or in combination of three, starting immediately after the OGD and lasting for another 24 hrs. Every condition was tested in triplicate. […] At the end of the experiment, plates were fixed PFA for 5 min at room temperature. Then, cells were permeabilized and blocked using PBS containing 10% normal goat serum, 0.1% sodium azide and 0.2% Triton X-100. Cells were stained overnight with a monoclonal anti-beta-tubulin III antibody (Sigma Aldrich, T8578). Next, cells were stained with the secondary antibody Alexa Fluor 488 Goat anti-Mouse IgG (H+L) (Invitrogen A11001 Fisher, 10256302). Nuclei were stained with Hoechst 33342 (Thermofisher, H3570). Images were taken at a magnification of 20× in 12 fields of view using In Cell Analyser 2000.

Assay [2] relates to PC12 pheochromocytoma cells. Nature of the assay: Neurite outgrowth in in vitro PC12 neuronal cell model (NGF, no hypoxia), Examples 5 and 6. Format: cell-based. The settings on record: total concentration of 20 μM choline from chol-CI, PC or both, control set at 100%.
Experimental: The effects of nutrient supplementation on neurite outgrowth parameters in PC12 pheochromocytoma cells was also assessed.
PC12 pheochromocytoma cells were grown in DMEM (Gibco), supplemented with 10% fetal bovine serum (FBS), penicillin (100 units/ml), and streptomycin (100 μg/ml) (Gibco), under a humidified atmosphere with 95% air and 5% CO2 at 37° C. Cells were seeded in collagen (0.01 mg/ml) coated 96 well plates at a density of 5000 cells/well and after 24 hours supplemented with medium containing 20 ng/ml nerve growth factor (NGF) with or without coenzyme Q10 (1 μM), vitamin D3 ((0.25 μM), vitamin B2 (0.5 μM), DHA (6.7 μM), a source of choline (20 μM phosphatidylcholine, PC) or a mixture thereof.
In the PC12 experiments the cells were not exposed to hypoxia.
Docosahexaenoic acid (DHA) was resuspended in absolute ethanol and diluted 5 times in fetal bovine serum. All compounds were purchased from Sigma (Zwijndrecht, The Netherlands).
Supplementation of cells was performed in 6-fold in 96 wells plates. These conditions were compared to non-supplemented cells. After supplementation for 48 hours with these combinations, cells were stained using Calcein-AM stain (2 ng/μl) and the nuclei were counterstained using Hoechst stain (0.6 μg/ml), in 100 μl culture medium per well and incubated for 20 min at 37° C. Subsequently, FITC and DAPI images (9 images per well for 96 wells plate) were taken using an ImageXpress high content imaging system. Neurite length was quantified using the neurite outgrowth module in MetaXpress.
Nutrients were supplemented alone (100% chol-CI or 100% PC) and in a ratio of 60:40 and 40:60 of chol-CI to PC. Supplementation of cells was performed in 6-fold in 96 wells plates at a total concentration of 20 μM choline, derived from chol-CI, from PC, or from both. The neurite outgrowth in these conditions were compared to non-supplemented PC12 cells.

On to `C=C1CC[C@H](O)C/C1=C/C=C1\CCC[C@]2(C)[C@@H]([C@H](C)CCCC(C)C)CC[C@@H]12` [vitamin D3, cholecalciferol], for which, in assay [1], the “neurite outgrowth after hypoxia relative to control” value is “did not affect neurite outgrowth”.
As for `COC1=C(OC)C(=O)C(C/C=C(\C)CC/C=C(\C)CC/C=C(\C)CC/C=C(\C)CC/C=C(\C)CC/C=C(\C)CC/C=C(\C)CC/C=C(\C)CC/C=C(\C)CCC=C(C)C)=C(C)C1=O` [co-enzyme Q10, 2,3 dimethoxy-5 methyl-6-decaprenyl benzoquinone], in assay [1], the “neurite outgrowth after hypoxia relative to control” value is listed as “did not affect neurite outgrowth”.
In the case of `Cc1cc2nc3c(=O)[nH]c(=O)nc-3n(C[C@H](O)[C@H](O)[C@H](O)CO)c2cc1C` [vitamin B2, riboflavin], the “neurite outgrowth after hypoxia relative to control” value in assay [1] is recorded as “did not affect neurite outgrowth”.
In the case of phosphatidylcholine [100% PC], the “neurite outgrowth compared to unsupplemented control PC12 cells” value was “increases neurite outgrowth slightly more than supplementation with 100% chol-CI” in assay [2] and “slightly better effect on neurite outgrowth than choline chloride” in assay [2] (listed as PC).
For `C[N+](C)(C)CCO.[Cl-]` [100% chol-CI, choline chloride], in assay [2], the “neurite outgrowth compared to unsupplemented control PC12 cells” value is given as “improved neurite outgrowth”.
